In US8614206B2 (Genentech, Inc., priority 2011, dated 2013):
Read-outs that look alike come from different tables or passages of the source.

What was measured:
PIM1 = PIM1 (Homo sapiens (Human), UniProt P11309); experiment: Pim kinase inhibition, PIM1 LC3K (Example 901); type: biochemical
From the text: Determination of the Pim kinase activity of a Formula I compound is possible by a number of direct and indirect detection methods.

BaF3 parental cells = experiment: In vitro cell proliferation, BaF3 parental line + IL3 (CellTiter-Glo); type: cell-based, murine; details: Mus musculus, BaF3, BaF3 parental cells with IL-3, incubated overnight
Method: (§1) BaF3 parental line was obtained from the DSMZ repository. BaF3 lines transfected with PIM 1 or PIM2 were generated. Mouse IL-3 was purchased from R&D Systems. G418 was purchased from Clontech. Media for BaF3 parental line contained RPMI, 10% FBS, 2 mM L-Glutamine, 2 ng/mL mIL-3. Media for BaF3 PIM1 & 2 lines contained RPMI, 10% FBS, 2 mM L-Glutamine, 250 μg/mL.
(§2) BaF3, a murine interleukin-3 dependent pro-B cell line, parental cells, BaF3 PIM1 cells, BaF3 PIM2 cells, and MM1.S (multiple myeloma) cells were seeded at 2 k/well, 5 k/well, 5 k/well, and 10 k/well respectively, in a 384-well plate, at 45 μL/well. Test compound was added at 5 μL/well. BaF3 cells (parental and transfected) were incubated overnight, while MM1.S cells were incubated for 72 hours at 37° C., 5% CO2. CELL TITER GLO® Reagent (Promega) was added at 50 μL/well, the plates were incubated for 30 minutes, and their luminescence read on an HT Analyst. IC50/EC50 values for the test compound were calculated.

[1] = tested on: MM1.S (multiple myeloma) cells; experiment: In vitro cell proliferation, MM1.S multiple myeloma cells (CellTiter-Glo, ATP); type: cell-based; details: Homo sapiens, MM1.S, 72 h, read-out: Prolif MM1S ATP (EC50)
In short: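 BaF3 parental cells (medium with 2 ng/mL mIL-3) seeded at 2 k/well and MM1.S at 10 k/well, then exposed to test compound at 37° C, 5% CO2: BaF3 overnight, MM1.S for 72 hours. Viability read by CellTiter-Glo; IC50/EC50 values calculated.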

BaF3 PIM1 cells = experiment: cells; details: Mus musculus
Method: as §1, §2

[2] = read-out: Prolif BaF3 + IL3 (IC50)
[3] = BaF3, read-out: Prolif BaF3_PIM1 (IC50), BaF3 PIM1 cells, incubated overnight
[4] = read-out: Prolif BaF3 IL3 (IC50)
[5] = BaF3, read-out: Prolif BaF3 PIM1 (IC50), BaF3 PIM1 cells, incubated overnight

Chain of PIM1 (P11309 whole entry): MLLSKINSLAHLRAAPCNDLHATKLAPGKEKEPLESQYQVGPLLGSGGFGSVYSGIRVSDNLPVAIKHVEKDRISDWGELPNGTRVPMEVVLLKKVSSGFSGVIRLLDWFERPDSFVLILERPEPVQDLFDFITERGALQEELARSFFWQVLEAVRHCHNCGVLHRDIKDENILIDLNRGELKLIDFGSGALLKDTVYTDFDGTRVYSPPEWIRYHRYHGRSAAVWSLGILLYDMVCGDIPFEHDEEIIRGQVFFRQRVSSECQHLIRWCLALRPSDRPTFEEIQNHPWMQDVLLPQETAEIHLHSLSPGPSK

## Nc1sc(-c2c(F)cccc2F)nc1C(=O)Nc1cnn(C2CC2)c1N1CCC(N)C(F)CC1 (single isomer, unassigned) [Example 331, 5-amino-N-[5-(4-amino-5-fluoro-azepan-1-yl)-1-cyclopropyl-pyrazol-4-yl]-2-(2,6-difluorophenyl)thiazole-4-carboxamide]
PIM1
  Ki: 0.0647 nM
BaF3 parental cells; [2]
  IC50: 13400 nM
[1]
  EC50: 167 nM
BaF3 PIM1 cells; [3]
  IC50: 152 nM

## Cc1cc(-c2nc(C(=O)Nc3cnn(C)c3N3CC[C@@H](N)CC(F)(F)C3)c(N)s2)ccn1 [Example 464, 5-amino-N-[5-[(5R)-5-amino-3,3-difluoro-azepan-1-yl]-1-methyl-pyrazol-4-yl]-2-(2-methyl-4-pyridyl)thiazole-4-carboxamide]
PIM1
  Ki: 0.06 nM
BaF3 parental cells; [2]
  IC50: 15900 nM
[1]
  EC50: 467 nM
BaF3 PIM1 cells; [3]
  IC50: 11.9 nM

## Cn1ncc(NC(=O)c2nc(-c3c(F)ccc(C4CC4)c3F)sc2N)c1N1CCC[C@@H](N)CC1 [Example 115, (R)-5-amino-N-(5-(4-aminoazepan-1-yl)-1-methyl-1H-pyrazol-4-yl)-2-(3-cyclopropyl-2,6-difluorophenyl)thiazole-4-carboxamide]
PIM1
  Ki: 0.015 nM
BaF3 parental cells; [4]
  IC50: 5800 nM
[1]
  EC50: 420 nM
BaF3 PIM1 cells; [5]
  IC50: 86.3 nM

## CN[C@@H]1CCCN(c2c(NC(=O)c3nc(-c4c(F)cccc4F)sc3N)cnn2CC(F)F)CC1 [Example 107, (R)-5-Amino-N-(1-(2,2-difluoroethyl)-5-(4-(methylamino)azepan-1-yl)-1H-pyrazol-4-yl)-2-(2,6-difluorophenyl)thiazole-4-carboxamide]
PIM1
  Ki: 0.079 nM
BaF3 parental cells; [4]
  IC50: 5100 nM
[1]
  EC50: 388 nM
BaF3 PIM1 cells; [5]
  IC50: 157 nM

## Cn1ncc(NC(=O)c2nc(-c3ccncc3F)sc2N)c1N1CC[C@H](N)CC(F)(F)C1 (single isomer, unassigned) [Example 446]
PIM1
  Ki: 0.01 nM
BaF3 parental cells; [2]
  IC50: 23500 nM
[1]
  EC50: 9200 nM
BaF3 PIM1 cells; [3]
  IC50: 4.51 nM

## Cn1ncc(NC(=O)c2nc(-c3cccc(C#N)n3)sc2N)c1N1CC[C@@H](N)CC(F)(F)C1 [Example 461, 5-amino-N-[5-[(5R)-5-amino-3,3-difluoro-azepan-1-yl]-1-methyl-pyrazol-4-yl]-2-(6-cyano-2-pyridyl)thiazole-4-carboxamide]
PIM1
  Ki: 0.08 nM
BaF3 parental cells; [2]
  IC50: 16600 nM
[1]
  EC50: 211 nM
BaF3 PIM1 cells; [3]
  IC50: 39.7 nM

## Cc1c(-c2nc(C(=O)Nc3cnn(C)c3N3CCC(N)CC(F)(F)C3)c(N)s2)cnn1C (stereo not drawn) [Example 460, 5-amino-N-[5-(5-amino-3,3-difluoro-azepan-1-yl)-1-methyl-pyrazol-4-yl]-2-(1,5-dimethylpyrazol-4-yl)thiazole-4-carboxamide]
PIM1
  Ki: 0.026 nM
BaF3 parental cells; [2]
  IC50: > 25000 nM
[1]
  EC50: 215 nM
BaF3 PIM1 cells; [3]
  IC50: 36.4 nM

## COC1(C)CC(N)CCN(c2c(NC(=O)c3nc(-c4ccncc4F)sc3N)cnn2C)C1 (stereo not drawn) [Example 476, 5-amino-N-[5-(5-amino-3-methoxy-3-methyl-azepan-1-yl)-1-methyl-pyrazol-4-yl]-2-(3-fluoro-4-pyridyl)thiazole-4-carboxamide]
PIM1
  Ki: 0.013 nM
BaF3 parental cells; [2]
  IC50: 25000 nM
[1]
  EC50: 872 nM
BaF3 PIM1 cells; [3]
  IC50: 24.5 nM

## Cc1ccc(F)c(-c2nc(C(=O)Nc3cnn(C)c3N3CCC[C@@H](N)CC3)c(N)s2)c1F [Example 116, (R)-5-amino-N-(5-(4-aminoazepan-1-yl)-1-methyl-1H-pyrazol-4-yl)-2-(2,6-difluoro-3-methylphenyl)thiazole-4-carboxamide]
PIM1
  Ki: 0.01 nM
BaF3 parental cells; [4]
  IC50: 8100 nM
[1]
  EC50: 122 nM
BaF3 PIM1 cells; [5]
  IC50: 63.6 nM

## COC1CCN(c2c(NC(=O)c3nc(-c4cc(F)ccc4F)sc3N)cnn2C)CCC1N (stereo not drawn) [Example 326, 5-amino-N-[5-(4-amino-5-methoxy-azepan-1-yl)-1-methyl-pyrazol-4-yl]-2-(2,5-difluorophenyl)thiazole-4-carboxamide]
PIM1
  Ki: 0.384 nM
BaF3 parental cells; [2]
  IC50: 17400 nM
[1]
  EC50: 185 nM
BaF3 PIM1 cells; [3]
  IC50: 73.5 nM

## Cn1ncc(NC(=O)c2nc(-c3c(F)cncc3F)sc2N)c1N1CC[C@H](N)[C@@H](F)CC1 (stereo in doubt) [Example 472, 5-amino-N-[5-[(4S,5S)-4-amino-5-fluoro-azepan-1-yl]-1-methyl-pyrazol-4-yl]-2-(3,5-difluoro-4-pyridyl)thiazole-4-carboxamide]
PIM1
  Ki: 0.086 nM
BaF3 parental cells; [2]
  IC50: 18500 nM
[1]
  EC50: 5600 nM
BaF3 PIM1 cells; [3]
  IC50: 64.8 nM

## Cc1nn(C)cc1-c1nc(C(=O)Nc2cnn(C)c2N2CC[C@@H](N)CC(F)(F)C2)c(N)s1 [Example 462, 5-amino-N-[5-[(5R)-5-amino-3,3-difluoro-azepan-1-yl]-1-methyl-pyrazol-4-yl]-2-(1,3-dimethylpyrazol-4-yl)thiazole-4-carboxamide]
PIM1
  Ki: 0.03 nM
BaF3 parental cells; [2]
  IC50: 8000 nM
[1]
  EC50: 1200 nM
BaF3 PIM1 cells; [3]
  IC50: 32.6 nM

## COC1(C)CC(N)CCN(c2c(NC(=O)c3nc(-c4c(F)cncc4F)sc3N)cnn2C)C1 (stereo not drawn) [Example 473, 5-amino-N-[5-(5-amino-3-methoxy-3-methyl-azepan-1-yl)-1-methyl-pyrazol-4-yl]-2-(3,5-difluoro-4-pyridyl)thiazole-4-carboxamide]
PIM1
  Ki: 0.009 nM
BaF3 parental cells; [2]
  IC50: 25000 nM
[1]
  EC50: 248 nM
BaF3 PIM1 cells; [3]
  IC50: 41.1 nM

## Cn1ncc(NC(=O)c2nc(-c3c(F)cncc3F)sc2N)c1N1CC[C@H](N)CC(F)(F)C1 (single isomer, unassigned) [Example 454]
PIM1
  Ki: 0.023 nM
BaF3 parental cells; [2]
  IC50: 17900 nM
[1]
  EC50: 3700 nM
BaF3 PIM1 cells; [3]
  IC50: 2.17 nM

## Cn1ncc(NC(=O)c2nc(-c3c(F)cncc3F)sc2N)c1N1CC[C@H](N)[C@@H](F)CC1 (racemic) [Example 439, 5-amino-N-(5-((4S,5S)-4-amino-5-fluoroazepan-1-yl)-1-methyl-1H-pyrazol-4-yl)-2-(3,5-difluoropyridin-4-yl)thiazole-4-carboxamide]
PIM1
  Ki: 0.121 nM
BaF3 parental cells; [2]
  IC50: 16200 nM
[1]
  EC50: 3900 nM
BaF3 PIM1 cells; [3]
  IC50: 38.8 nM

## COC1(C)CC(N)CCN(c2c(NC(=O)c3nc(-c4ccncc4F)sc3N)cnn2C)C1 (racemic) [Example 441, 5-amino-N-[5-(5-amino-3-methoxy-3-methyl-azepan-1-yl)-1-methyl-pyrazol-4-yl]-2-(3-fluoro-4-pyridyl)thiazole-4-carboxamide]
PIM1
  Ki: 0.027 nM
BaF3 parental cells; [2]
  IC50: > 25000 nM
[1]
  EC50: 39.3 nM
BaF3 PIM1 cells; [3]
  IC50: 13.1 nM

## Cn1ncc(NC(=O)c2nc(-c3ccncc3F)sc2N)c1N1CC[C@H](N)[C@@H](F)CC1 [Example 422, 5-amino-N-(5-((4S,5S)-4-amino-5-fluoroazepan-1-yl)-1-methyl-1H-pyrazol-4-yl)-2-(3-fluoropyridin-4-yl)thiazole-4-carboxamide]
PIM1
  Ki: 0.38 nM
BaF3 parental cells; [2]
  IC50: > 25000 nM
[1]
  EC50: 3800 nM
BaF3 PIM1 cells; [3]
  IC50: 340 nM

## Nc1sc(-c2c(F)cccc2F)nc1C(=O)Nc1cnn(C2CC2)c1N1CC[C@@H](N)CC(F)(F)C1 [Example 345, 5-amino-N-[5-[(5R)-5-amino-3,3-difluoro-azepan-1-yl]-1-cyclopropyl-pyrazol-4-yl]-2-(2,6-difluorophenyl)thiazole-4-carboxamide]
PIM1
  Ki: 0.007 nM
BaF3 parental cells; [2]
  IC50: 8400 nM
[1]
  EC50: 136 nM
BaF3 PIM1 cells; [3]
  IC50: 81.3 nM

## COc1ncccc1-c1nc(C(=O)Nc2cnn(C)c2N2CCC[C@H](N)CC2)c(N)s1 [Example 418, 5-amino-N-[5-[(4S)-4-aminoazepan-1-yl]-1-methyl-pyrazol-4-yl]-2-(2-methoxy-3-pyridyl)thiazole-4-carboxamide]
PIM1
  Ki: 1.08 nM
BaF3 parental cells; [2]
  IC50: > 25000 nM
[1]
  EC50: 7000 nM
BaF3 PIM1 cells; [3]
  IC50: 1400 nM

## CN[C@@H]1CCCN(c2c(NC(=O)c3nc(-c4cc(F)ccc4F)sc3N)cnn2CC(F)F)CC1 [Example 108, (R)-5-Amino-N-(1-(2,2-difluoroethyl)-5-(4-(methylamino)azepan-1-yl)-1H-pyrazol-4-yl)-2-(2,5-difluorophenyl)thiazole-4-carboxamide]
PIM1
  Ki: 0.43 nM
BaF3 parental cells; [4]
  IC50: 4900 nM
[1]
  EC50: 1400 nM
BaF3 PIM1 cells; [5]
  IC50: 326 nM

## Cn1ncc(NC(=O)c2nc(-c3ccccc3F)sc2N)c1N1CCCC(C)(N)CC1 (racemic) [Example 412, 5-amino-N-[5-(4-amino-4-methyl-azepan-1-yl)-1-methyl-pyrazol-4-yl]-2-(2-fluorophenyl)thiazole-4-carboxamide]
PIM1
  Ki: 0.057 nM
BaF3 parental cells; [2]
  IC50: 7100 nM
[1]
  EC50: 1100 nM
BaF3 PIM1 cells; [3]
  IC50: 1500 nM

## COC1(C)CC(N)CCN(c2c(NC(=O)c3nc(-c4c(F)cncc4F)sc3N)cnn2C)C1 (racemic) [Example 440, 5-amino-N-[5-(5-amino-3-methoxy-3-methyl-azepan-1-yl)-1-methyl-pyrazol-4-yl]-2-(3,5-difluoro-4-pyridyl)thiazole-4-carboxamide]
PIM1
  Ki: 0.024 nM
BaF3 parental cells; [2]
  IC50: > 25000 nM
[1]
  EC50: 77.4 nM
BaF3 PIM1 cells; [3]
  IC50: 15.2 nM

## CN[C@@H]1CCCN(c2c(NC(=O)c3nc(-c4cc(C)ccc4F)sc3N)cnn2CC(F)F)CC1 [Example 109, (R)-5-Amino-N-(1-(2,2-difluoroethyl)-5-(4-(methylamino)azepan-1-yl)-1H-pyrazol-4-yl)-2-(2-fluoro-5-methylphenyl)thiazole-4-carboxamide]
PIM1
  Ki: 0.097 nM
BaF3 parental cells; [4]
  IC50: 5100 nM
[1]
  EC50: 3900 nM
BaF3 PIM1 cells; [5]
  IC50: 778 nM

## Cc1ccc(F)c(-c2nc(C(=O)Nc3cnn(C4CC4)c3N3CCC(N)C(F)CC3)c(N)s2)c1 (stereo not drawn) [Example 329, 5-amino-N-[5-(4-amino-5-fluoro-azepan-1-yl)-1-cyclopropyl-pyrazol-4-yl]-2-(2-fluoro-5-methyl-phenyl)thiazole-4-carboxamide]
PIM1
  Ki: 0.248 nM
BaF3 parental cells; [2]
  IC50: 4600 nM
[1]
  EC50: 2800 nM
BaF3 PIM1 cells; [3]
  IC50: 1300 nM
